Columns and labels:
Format in all cases: biochemical
[1] = target: T1, MMP-13 (Homo sapiens, UniProt P45452); test: Assay for inhibitory activities on MMPs (fluorogenic peptide substrate), MMP-13
T1 construct: catalytic domain (^104Tyr˜^267Gly) was amplified with RT-PCR; His-tag; enterokinase digestion-site
Method: In regard to MMP-13, mRNA was prepared from carcinoma cell SW1353 derived from human cartilage stimulate by IL-1 and TNF, and catalytic domain (^[…]) was amplified with RT-PCR. This was cloned in Escherichia coli expression vector […] inserted with His-tag sequence and enterokinase digestion-site, induced and expressed by IPTG (Isopropyl-β-D-thiogalactopyranoside) and expressed in an insoluble fraction. Isolation of MMP-13 from an insoluble fraction was carried out by dissolving in modifier (6 M urea) by a usual method and purification with metal chelate chromatography (Ni […] Sepharose). And then removing modifier (6 M urea) with dialyze and refolding of the enzyme spontaneously gave activated MMP-13. The enzymatic activity on MMPs was analyzed by the method described in “C. Graham Knight, Frances Willenbrock and Gillian Murphy: A novel coumarin-labelled peptide for sensitive continuous assays of the matrix metalloproteinases: FEBS LETT., 296, (1992), 263-266”. The substrate: MOCAc-[…] was purchased from Peptide Institute, Inc., Osaka, Japan. The measurement of the inhibitory activities (IC50) was carried out by the following four methods; (A) Reaction with substrate, enzyme (MMPs) and inhibitor (B) Reaction with substrate and inhibitor, without enzyme (C) Reaction with substrate and enzyme (MMPs), without inhibitor (D) Reaction with substrate only IC50 values were calculated by using the following formula and each fluorescence values of above four methods (A to D). % inhibition={1-(A-B)/(C-D)}×100 IC50 means the concentration required to inhibit 50% of the enzyme activity. The value of inhibitory activity against MMP-2, MMP-8, MMP-9, MMP-12, and MMP-13 measured by above mentioned methods are shown in Table 25 and 26.

[2] = target: T2, MMP-2 (Homo sapiens, UniProt P08253); test: Assay for inhibitory activities on MMPs (fluorogenic peptide substrate), MMP-2
T2 sequence (P08253 110-660): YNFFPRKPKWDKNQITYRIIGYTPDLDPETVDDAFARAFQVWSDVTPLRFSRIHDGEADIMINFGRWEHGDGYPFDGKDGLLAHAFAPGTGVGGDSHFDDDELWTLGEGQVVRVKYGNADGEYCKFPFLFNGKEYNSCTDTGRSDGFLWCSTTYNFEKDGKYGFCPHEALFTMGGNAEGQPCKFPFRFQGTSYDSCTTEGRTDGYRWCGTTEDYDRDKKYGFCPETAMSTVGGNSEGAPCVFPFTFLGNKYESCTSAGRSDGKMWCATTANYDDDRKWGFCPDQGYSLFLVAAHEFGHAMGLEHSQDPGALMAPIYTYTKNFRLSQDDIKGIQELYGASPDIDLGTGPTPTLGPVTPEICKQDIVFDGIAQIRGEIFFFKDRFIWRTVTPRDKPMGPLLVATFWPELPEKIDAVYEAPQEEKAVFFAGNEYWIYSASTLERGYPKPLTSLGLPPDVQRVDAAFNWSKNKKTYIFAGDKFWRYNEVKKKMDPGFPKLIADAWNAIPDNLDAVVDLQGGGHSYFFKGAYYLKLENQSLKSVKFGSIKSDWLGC
Method: MMP-2 was purchased from Calbiochem-Novabiochem International, Inc.
(§1) The enzymatic activity on MMPs was analyzed by the method described in “C. Graham Knight, Frances Willenbrock and Gillian Murphy: A novel coumarin-labelled peptide for sensitive continuous assays of the matrix metalloproteinases: FEBS LETT., 296, (1992), 263-266”. The substrate: MOCAc-Pro-Leu-Gly-Leu-A2Pr(DNP)-Ala-Arg-NH2 was purchased from Peptide Institute, Inc., Osaka, Japan. The measurement of the inhibitory activities (IC50) was carried out by the following four methods;
(§2) (A) Reaction with substrate, enzyme (MMPs) and inhibitor
(§3) (B) Reaction with substrate and inhibitor, without enzyme
(§4) (C) Reaction with substrate and enzyme (MMPs), without inhibitor
(§5) (D) Reaction with substrate only
(§6) IC50 values were calculated by using the following formula and each fluorescence values of above four methods (A to D).
(§7) % inhibition={1-(A−B)/(C−D)}×100
(§8) IC50 means the concentration required to inhibit 50% of the enzyme activity.
(§9) The value of inhibitory activity against MMP-2, MMP-8, MMP-9, MMP-12, and MMP-13 measured by above mentioned methods are shown in Table 25 and 26.

[3] = target: T3, MMP-8 (Homo sapiens, UniProt P22894); test: Assay for inhibitory activities on MMPs (fluorogenic peptide substrate), MMP-8
T3 construct: In regard to MMP-8, catalytic domain (^99Phe˜^262Gly) was amplified with PCR; His-tag; enterokinase digestion-site
T3 sequence (P22894 99-262): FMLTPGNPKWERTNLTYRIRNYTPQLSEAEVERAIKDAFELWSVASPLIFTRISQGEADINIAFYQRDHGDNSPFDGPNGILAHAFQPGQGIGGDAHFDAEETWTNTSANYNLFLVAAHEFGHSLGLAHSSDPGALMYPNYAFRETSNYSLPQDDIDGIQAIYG
Excerpt: In regard to MMP-8, catalytic domain (^99Phe˜^262Gly) was amplified with PCR using commercial available Human Bone Marrow cDNA. This was cloned in Escherichia coli expression vector pTrc99AHE inserted with His-tag sequence and enterokinase digestion-site, induced and expressed by IPTG (Isopropyl-β-D-thiogalactopyranoside) and expressed in a insoluble fraction (Than F. Ho, M. Walid Qoronfleh, Robert C. Wahl, Trica A. Pulvino, Karen J. Vavra, Joe Falvo, Tracey M. Banks, Patricia G. Brake and Richard B. Ciccarelli: Gene expression, purification and characterization of recombinant human neutrophil collagenase. Gene 146, (1994) 297-301. It was prepared by the method in a slight modification). Isolation of MMP-8 from an insoluble fraction was carried out by dissolving in modifier (6 M urea) by a usual method and purification with metal chelate chromatography. And then removing modifier (6 M urea) with dialysis and refolding of the enzyme spontaneously gave activated MMP-8.
as §1, §2, §3, §4, §5, §6, §7, §8, §9

[4] = target: MMP-9 (Homo sapiens, UniProt P14780); test: Assay for inhibitory activities on MMPs (fluorogenic peptide substrate), MMP-9
Chain of MMP-9 (P14780 107-707): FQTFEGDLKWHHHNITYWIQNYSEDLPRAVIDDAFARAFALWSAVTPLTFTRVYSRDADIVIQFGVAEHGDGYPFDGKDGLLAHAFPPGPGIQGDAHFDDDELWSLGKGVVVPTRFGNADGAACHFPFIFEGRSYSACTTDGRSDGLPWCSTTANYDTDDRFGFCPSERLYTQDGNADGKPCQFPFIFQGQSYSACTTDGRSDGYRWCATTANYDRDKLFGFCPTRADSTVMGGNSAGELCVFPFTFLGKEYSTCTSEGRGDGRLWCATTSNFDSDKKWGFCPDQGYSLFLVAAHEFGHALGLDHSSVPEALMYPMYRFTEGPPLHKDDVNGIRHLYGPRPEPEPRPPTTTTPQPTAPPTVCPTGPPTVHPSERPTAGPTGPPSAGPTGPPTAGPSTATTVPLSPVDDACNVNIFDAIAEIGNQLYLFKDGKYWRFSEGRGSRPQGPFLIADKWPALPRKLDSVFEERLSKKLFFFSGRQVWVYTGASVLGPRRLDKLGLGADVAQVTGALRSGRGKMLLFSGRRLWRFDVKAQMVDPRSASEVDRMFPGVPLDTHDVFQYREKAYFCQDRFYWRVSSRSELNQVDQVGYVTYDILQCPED
Excerpt: MMP-9 was isolated and purified by the procedure of Y. Okada et al. (Yasunori Okada, Yukio Gonoji, Katsumi Naka, Katsuro Tomita, Isao Nakanishi, Kazushi Iwata, Kyoko Yamashita, and Taro Hayakawa: Matrix metalloproteinase 9 (92-kDa gelatinase/type IV collagenase) from HT1080 human fibrosarcoma cells. Purification and activation of the precursor and enzymic properties, J. Biol. Chem., 1992, 267, 21712-21719) in combination with other following methods: 1) Yasunori Okada, Tatsuhisa Morodomi, Jan J, Enghild, Ko Suzuki, Atsushi Yasui, Isao Nakanishi, Guy Salvesen and Hideaki Nagase: Matrix metalloproteinase 2 from human rheumatoid synovial fibroblasts. Purification and activation of the precursor and enzymic properties, Eur. J. Biochem., 1990, 194, 721-730; 2) Robin V Ward, Rosalind M Hembry, John J Reynolds and Gillian Murphy: The purification of tissue inhibitor of metalloproteinase-2 from its 72 kDa progelatinase complex. Biochem. J., 1991, 278, 179-187. In detail, human fibrosarcoma ATCC HT1080 cell line was cultured to confluent in Dulbecco's Modified Medium (DMEM) containing 10% fetal-calf serum at 37° C. for 48 hours. Subsequently, the medium of confluent culture was changed to serum-free DMEM medium. To obtain MMP-9, phorbol-12-myristate-13-acetate (TPA) must be added to this serum-free DMEM medium at a concentration of 50 ng/ml. The TPA-treated medium was centrifuged at 3000 rpm for 15 min, and the supernatant was concentrated to 450 ml by a Toyo-Roshi UP-20 apparatus with an ultrafiltration membrane. Then, proMMP-9 in this concentrated solution was purified by using columns of Gelatin-Sepharose and Concanavalin A-Sepharose. The pool containing proMMP-9 was dialyzed, concentrated (Toyo-Roshi UP-20) and applied to columns of Sephacryl S-200 and Green A matrix for the separation from TIMPs. The obtained proMMP-9 fraction was activated by TPCK-Trypsin (Final conc.: 3 μg/501 React Mix.).
as §1, §2, §3, §4, §5, §6, §7, §8, §9

[5] = target: T4, MMP-12 (Homo sapiens, UniProt P39900); test: Assay for inhibitory activities on MMPs (fluorogenic peptide substrate), MMP-12
T4 construct: In regard to MMP-12, catalytic domain (^100Phe˜^263Gly) was amplified with RT-PCR; His-tag; enterokinase digestion-site
T4 sequence (P39900 100-263): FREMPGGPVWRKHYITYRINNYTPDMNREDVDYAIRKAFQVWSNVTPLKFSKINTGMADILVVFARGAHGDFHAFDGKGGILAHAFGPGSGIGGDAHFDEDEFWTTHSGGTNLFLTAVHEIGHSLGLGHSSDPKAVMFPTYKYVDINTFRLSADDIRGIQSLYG
Method: In regard to MMP-12, catalytic domain (^100Phe˜^263Gly) was amplified with RT-PCR from Human Placenta Total RNA. This was cloned in Escherichia coli expression vector pTrc99AHE inserted with His-tag sequence and enterokinase digestion-site, induced and expressed by IPTG (Isopropyl-β-D-thiogalactopyranoside) and expressed in an insoluble fraction. Isolation of MMP-12 from an insoluble fraction was carried out by dissolving in modifier (6 M urea) by a usual method and purification with metal chelate chromatography (Ni Chelateing Sepharose). And then removing modifier (6 M urea) with dialysis and refolding of the enzyme spontaneously gave activated MMP-12.
as §1, §2, §3, §4, §5, §6, §7, §8, §9

SMILES	IC50 [1]	IC50 [2]	IC50 [3]	IC50 [4]	IC50 [5]
COc1ccc(C(=O)Nc2ccc(-c3ccc(S(=O)(=O)N[C@H](C)C(=O)O)cc3)cc2)cc1OC [VI-24]	50.1 nM	839 nM	1520 nM	> 10000 nM	443 nM
O=C(O)[C@H](CO)NS(=O)(=O)c1ccc(-c2ccc(C#Cc3ccc4[nH]ccc4c3)cc2)cc1 [III-56]	6.05 nM	65.7 nM			
O=C(C#Cc1ccccc1)Nc1ccc(-c2ccc(S(=O)(=O)N[C@H](Cc3ccccc3)C(=O)O)cc2)cc1 [VI-13]	27.2 nM	167 nM	641 nM	> 10000 nM	503 nM
COc1ccc2cc(C#Cc3ccc(-c4ccc(S(=O)(=O)NC5(C(=O)O)CCCC5)cc4)cc3)ccc2c1 [III-65]	172 nM	> 10000 nM			
O=C(Nc1ccc(-c2ccc(S(=O)(=O)N[C@H](Cc3ccccc3)C(=O)O)cc2)cc1)c1ccc(F)cc1 [VI-6]	39.4 nM	235 nM	> 10000 nM	> 10000 nM	> 10000 nM
O=C(Nc1ccc(-c2ccc(S(=O)(=O)N[C@@H](Cc3ccccc3)C(=O)O)cc2)cc1)c1cc2ccccc2s1 [VI-48]	47.3 nM	> 10000 nM			
C[C@H](NS(=O)(=O)c1ccc(-c2ccc(C#Cc3cccc(C(=O)O)c3)cc2)cc1)C(=O)O [III-61]	6.17 nM	349 nM			
COc1ccc2cc(C#Cc3ccc(-c4ccc(S(=O)(=O)NC5(C(=O)O)CCCCC5)cc4)cc3)ccc2c1 [III-66]	42.4 nM	> 10000 nM			
Cc1c(C(=O)Nc2ccc(-c3ccc(S(=O)(=O)N[C@H](Cc4ccccc4)C(=O)O)cc3)cc2)oc2ccccc12 [VI-46]	96.5 nM	747 nM			
Cc1nc2cc(C#Cc3ccc(-c4ccc(S(=O)(=O)N[C@@H](C)C(=O)O)cc4)cc3)ccc2s1 [III-54]	11.3 nM	147 nM			
CC(C)Oc1cccc(C#Cc2ccc(-c3ccc(S(=O)(=O)N[C@@H](C)C(=O)O)cc3)cc2)c1 [III-60]	97.8 nM	1170 nM			
O=C(O)[C@H](CO)NS(=O)(=O)c1ccc(-c2ccc(C#Cc3ccc4sccc4c3)cc2)cc1 [III-55]	10.9 nM	494 nM			

The remaining lines, values ahead:

IC50 [1]	IC50 [2]	IC50 [3]	IC50 [4]	IC50 [5]	SMILES
7.93 nM	91 nM				CC(C)(C)[C@H](NS(=O)(=O)c1ccc(-c2ccc(OCc3ccc4ccccc4c3)cc2)cc1)C(=O)O [VII-8]
3.49 nM	5010 nM	> 10000 nM	> 10000 nM	5290 nM	COc1ccc2cc(C#Cc3ccc(-c4ccc(S(=O)(=O)N[C@H](CO)C(=O)O)cc4)cc3)ccc2c1 [III-44]
20.1 nM	> 10000 nM	4460 nM	> 10000 nM	901 nM	COc1ccc2cc(C#Cc3ccc(-c4ccc(S(=O)(=O)N[C@@H](Cc5c[nH]c6ccccc56)C(=O)O)cc4)cc3)ccc2c1 [III-31]
38.1 nM	726 nM	> 10000 nM	> 10000 nM	> 10000 nM	C[C@@H](NS(=O)(=O)c1ccc(-c2ccc(NC(=O)c3ccc4ccccc4c3)cc2)cc1)C(=O)O [VI-37]
50.8 nM	> 10000 nM	109 nM	> 10000 nM	118 nM	COc1ccc2cc(C#Cc3ccc(-c4ccc(S(=O)(=O)N[C@H](CSC)C(=O)O)cc4)cc3)ccc2c1 [III-49]
18.9 nM	402 nM				COCc1cccc(C#Cc2ccc(-c3ccc(S(=O)(=O)N[C@@H](C)C(=O)O)cc3)cc2)c1 [III-62]
9.12 nM	57.5 nM				COc1ccc2cc(C#Cc3ccc(-c4ccc(S(=O)(=O)N[C@H](Cc5ccc(O)cc5)C(=O)O)cc4)cc3)ccc2c1 [III-46]
16.5 nM	> 10000 nM				COc1ccc2cc(COc3ccc(-c4ccc(S(=O)(=O)N[C@@H](C)C(=O)O)cc4)cc3)ccc2c1 [VII-10]
16.2 nM	> 10000 nM				C[C@@H](NS(=O)(=O)c1ccc(-c2ccc(COc3ccc4ccccc4c3)cc2)cc1)C(=O)O [VII-11]
9.5 nM	144 nM				COCc1cccc(C#Cc2ccc(-c3ccc(S(=O)(=O)N[C@H](C(=O)O)C(C)C)cc3)cc2)c1 [III-63]
26.5 nM	188 nM				CSCC[C@H](NS(=O)(=O)c1ccc(-c2ccc(OCc3ccc4ccccc4c3)cc2)cc1)C(=O)O [VII-9]
21.1 nM	261 nM				COCc1cccc(C#Cc2ccc(-c3ccc(S(=O)(=O)N[C@@H](CC(C)C)C(=O)O)cc3)cc2)c1 [III-64]
